Results: patent publication US9498546B2, “Synthesis and application of novel imaging agents conjugated to DPA 713 analogs for imaging inflammation” (THE JOHNS HOPKINS UNIVERSITY, priority 2012, dated 2016)

Test system: LPS-stimulated J774 macrophages (TSPO)
Assay: In vitro J774 murine macrophage uptake studies (fluorescence microscopy, with or without blocking)
Type: cell-based
Conditions: 40 nM probe, 1 hour of incubation
Procedure: FIG. 4 is a series of photomicrographs (A-I) of J774 macrophages that were cultured in 8 well chamber slides to 80% confluence. LPS was then added to each well for 24 hours to stimulate the cells. […] The cells were returned to the incubator for either 1 hour or 24 hours. The solutions were then removed, the nuclei were labeled with Hoechst 33342 and the cells were briefly washed before mounting and viewing under a fluorescence microscope.
In vitro J774 murine macrophage uptake studies. The immortalized J774 murine macrophage-like cell line was cultured in RPMI1640+20% FBS+1% penicillin+ streptomycin media in 8-well chamber slides (Fisher Scientific) to approximately 80% confluence. The cells were then stimulated with 1 ng/mL of LPS (Sigma, E. coli 055:B5) for 24 hours prior to addition of the probes of the present invention to 40 nM final concentration. […] The cells were exposed to the fluorescent probes and blocking compounds for either 1 hour or 24 hours prior to exposing to 1 ng/mL of Hoechst 33342 dye (Invitrogen), followed by washing twice briefly with PBS, pH 7.5. The chambers were then removed and the slide mounted with Dako Cytomation aqueous mounting media and a glass coverslip. The cells were visualized using a Nikon 80i upright epifluorescence microscope equipped with a Nikon DS-QilMc darkfield CCD camera and processed using Nikon Image Software on an adjacent workstation. The dyes were excited using either a Nikon Intensilight C-HGFI lamp (IRDye680 and Hoechst) or a Sutter Instruments Co. (Novato, Calif.) LB/LB-30 xenon lamp (IRDye800).
J774 Cell Uptake Studies. J774 macrophages were cultured in 8 well chamber slides to 80% confluence. LPS was then added to each well for 24 hours to stimulate the cells. […] The cells were returned to the incubator for either 1 hour or 24 hours. The solutions were then removed, the nuclei were labeled with Hoechst 33342 and the cells were briefly washed before mounting and viewing under a fluorescence microscope. […] The tracer localization for both analogs is perinuclear and granular in appearance and is consistent with the gross distribution pattern of TSPO expression in other mononuclear cell-derived lines.

For `CCN(CC)C(=O)Cc1c(-c2ccc(OCCNC(=O)CCCCC[N+]3=C(/C=C/C4=C(Oc5ccc(S(=O)(=O)O)cc5)C(=C/C=C5/N(CCCCS(=O)(=O)O)c6ccc(S(=O)(=O)O)cc6C5(C)C)/CCC4)C(C)(C)c4cc(S(=O)(=O)[O-])ccc43)cc2)nn2c(C)cc(C)nc12` [DPA-713-IRDye800CW, 1-(6-(2-(4-(3-(2-(diethylamino)-2-oxoethyl)-5,7-dimethylpyrazolo[1,5-a]pyrimidin-2-yl)phenoxy)ethylamino)-6-oxohexyl)-2-((E)-2-((E)-3-((E)-2-(3,3-dimethyl-5-sulfo-1-(4-sulfobutyl)indolin-2-ylidene)ethylidene)-2-(4-sulfophenoxyl)cyclohex-1-enyl)vinyl)-3,3-dimethyl-3H-indolium-5-sulfonate], the “Observable fluorescence signal (uptake)” value was “almost no observable signal”.
